Measured values reported in PubChem BioAssay (NCI).
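Cells were grown in 96-well plates and exposed to each compound for 48 hours at five concentrations; endpoints were interpolated linearly between bracketing concentrations, or set to the highest concentration if not reached. Definition used: TGI = concentration required for complete inhibition of growth.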

Assays:
Experiment in all cases: inhibition of tumour cell growth, NCI panel, 48 h
[1] = system: MDA-N
[2] = system: OVCAR-3 ovarian
[3] = system: EKVX NSCLC
[4] = system: SF-539 CNS
[5] = system: SK-MEL-28 melanoma
[6] = system: BT-549 breast
[7] = system: HOP-62 NSCLC
[8] = system: U251 CNS
[9] = system: HS 578T breast
[10] = system: OVCAR-4 ovarian
[11] = system: TK-10 renal
[12] = system: UO-31 renal
[13] = system: CAKI-1 renal
[14] = system: UACC-257 melanoma
[15] = system: NCI/ADR-RES ovarian
[16] = system: CCRF-CEM leukemia
[17] = system: SK-MEL-5 melanoma
[18] = system: SK-OV-3 ovarian
[19] = system: UACC-62 melanoma
[20] = system: MDA-MB-231 breast
[21] = system: SR leukemia
[22] = system: OVCAR-8 ovarian
[23] = system: DU-145 prostate
[24] = system: HT29 colon
[25] = system: HCC-2998 colon
[26] = system: SK-MEL-2 melanoma
[27] = system: RPMI-8226 leukemia
[28] = system: NCI-H460 lung
[29] = system: PC-3 prostate
[30] = system: SW-620 colon
[31] = system: A549 NSCLC
[32] = system: IGROV1 ovarian
[33] = system: ACHN renal
[34] = system: SNB-19 CNS
[35] = system: MCF7 breast
[36] = system: T-47D breast
[37] = system: HCT-15 colon
[38] = system: K-562 leukemia
[39] = system: MDA-MB-435
[40] = system: OVCAR-5 ovarian
[41] = system: SN12C renal
[42] = system: COLO 205 colon
[43] = system: HL-60(TB) leukemia
[44] = system: KM12 colon
[45] = system: SF-295 CNS
[46] = system: HOP-92 NSCLC
[47] = system: MOLT-4 leukemia
[48] = system: M14 melanoma
[49] = system: SNB-75 CNS
[50] = system: HCT-116 colon
[51] = system: SF-268 CNS
[52] = system: 786-0 renal
[53] = system: A498 renal
[54] = system: LOX IMVI melanoma
[55] = system: MALME-3M melanoma
[56] = system: NCI-H226 lung
[57] = system: NCI-H522 lung
[58] = system: NCI-H23 lung

## Cc1ccc2nc(Cl)c(/C=N/N3C(=O)/C(=C/c4cccc([N+](=O)[O-])c4)N=C3c3ccccc3)cc2c1
[1]
  TGI: 42.2 µM
[2]
  TGI: > 100 µM
[3]
  TGI: > 100 µM
[4]
  TGI: > 100 µM
[5]
  TGI: > 100 µM
[6]
  TGI: > 100 µM
[7]
  TGI: > 100 µM
[8]
  TGI: > 100 µM
[9]
  TGI: > 100 µM
[10]
  TGI: > 100 µM
[11]
  TGI: > 100 µM
[12]
  TGI: > 100 µM
[13]
  TGI: > 100 µM
[14]
  TGI: > 100 µM
[15]
  TGI: > 100 µM
[16]
  TGI: 97 µM
[17]
  TGI: > 100 µM
[18]
  TGI: > 100 µM
[19]
  TGI: > 100 µM
[20]
  TGI: > 100 µM
[21]
  TGI: 59.6 µM
[22]
  TGI: > 100 µM
[23]
  TGI: > 100 µM
[24]
  TGI: > 100 µM
[25]
  TGI: > 100 µM
[26]
  TGI: 61.7 µM
[27]
  TGI: > 100 µM
[28]
  TGI: > 100 µM
[29]
  TGI: 76.9 µM
[30]
  TGI: > 100 µM
[31]
  TGI: > 100 µM
[32]
  TGI: > 100 µM
[33]
  TGI: > 100 µM
[34]
  TGI: > 100 µM
[35]
  TGI: 93.7 µM
[36]
  TGI: > 100 µM
[37]
  TGI: > 100 µM
[38]
  TGI: > 100 µM
[39]
  TGI: 54.5 µM
[40]
  TGI: > 100 µM
[41]
  TGI: > 100 µM
[42]
  TGI: > 100 µM
[43]
  TGI: > 100 µM
[44]
  TGI: > 100 µM
[45]
  TGI: > 100 µM
[46]
  TGI: > 100 µM
[47]
  TGI: 80.5 µM
[48]
  TGI: > 100 µM
[49]
  TGI: > 100 µM
[50]
  TGI: > 100 µM
[51]
  TGI: > 100 µM
[52]
  TGI: > 100 µM
[53]
  TGI: 52.3 µM
[54]
  TGI: > 100 µM

## CN1CC[C@]23c4c5ccc(O)c4O[C@H]2C(O)CC[C@@]3(O)[C@H]1C5 (some centres not stated)
[1]
  TGI: > 100 µM
[2]
  TGI: > 100 µM
[3]
  TGI: > 100 µM
[4]
  TGI: > 100 µM
[5]
  TGI: > 100 µM
[6]
  TGI: > 100 µM
[7]
  TGI: > 100 µM
[8]
  TGI: > 100 µM
[9]
  TGI: > 100 µM
[10]
  TGI: > 100 µM
[11]
  TGI: > 100 µM
[55]
  TGI: > 100 µM
[12]
  TGI: > 100 µM
[13]
  TGI: > 100 µM
[14]
  TGI: > 100 µM
[15]
  TGI: > 100 µM
[17]
  TGI: > 100 µM
[18]
  TGI: > 100 µM
[19]
  TGI: > 100 µM
[20]
  TGI: > 100 µM
[21]
  TGI: > 100 µM
[22]
  TGI: > 100 µM
[23]
  TGI: > 100 µM
[24]
  TGI: > 100 µM
[26]
  TGI: > 100 µM
[27]
  TGI: > 100 µM
[56]
  TGI: > 100 µM
[57]
  TGI: > 100 µM
[29]
  TGI: > 100 µM
[30]
  TGI: > 100 µM
[31]
  TGI: > 100 µM
[32]
  TGI: > 100 µM
[33]
  TGI: > 100 µM
[34]
  TGI: > 100 µM
[35]
  TGI: > 100 µM
[36]
  TGI: > 100 µM
[37]
  TGI: > 100 µM
[39]
  TGI: > 100 µM
[40]
  TGI: > 100 µM
[41]
  TGI: > 100 µM
[42]
  TGI: > 100 µM
[43]
  TGI: > 100 µM
[44]
  TGI: > 100 µM
[45]
  TGI: > 100 µM
[46]
  TGI: > 100 µM
[47]
  TGI: > 100 µM
[48]
  TGI: > 100 µM
[50]
  TGI: > 100 µM
[51]
  TGI: > 100 µM
[58]
  TGI: > 100 µM
[52]
  TGI: > 100 µM
[53]
  TGI: > 100 µM
[54]
  TGI: > 100 µM
